Assay results: patent US11254716B2, “Peptides for binding epidermal growth factor” (3M INNOVATIVE PROPERTIES COMPANY, priority 2016, dated 2022)
pKd: −log10 of the molar value. Where no end group is shown, it is not given here.

What was measured:
[1] = target: T1, TNF-α (Homo sapiens, UniProt P01375); experiment: Surface plasmon resonance (SPR) binding assay (Test Method A), TNF-α; details: CK-linker modified peptide immobilized on CM5 chip, Biacore 3000, 25° C., TNF-α 62.5-1000 nM, 1-to-1 Langmuir fit; read-out: binding affinity (KD) for TNF-α
T1 construct: purchased Abcam plc, Cambridge, Mass

[2] = target: T2, EGF (Homo sapiens, UniProt P01133); experiment: biochemical; details: binding affinity (KD) for EGF, CK-linker modified peptide immobilized on CM5 chip, Biacore 3000, 25° C., EGF 62.5-1000 nM, 1-to-1 Langmuir fit
Experimental: “Test Method A” refers to the following general surface plasmon resonance (SPR) binding assay. Target protein (e.g., EGF and tumor necrosis factor alpha (TNFα)) is immobilized at 25° C. and diluted peptides are injected for 3 min at a flow rate of 10 μl/min at 25° C.
The immobilization was performed at 25° C. using HBS-EP as the running buffer. The CM-dextran surfaces of the sensor chip flow cells were activated by a seven minute injection (20 microliters/minute) of freshly prepared 1:1 50 mM NHS: 200 mM EDC. […] The coupling step was followed by a seven minute injection (20 microliters/minute) of ethanolamine hydrochloride-NaOH (1M, pH 8.5) which deactivated residual reactive sites.
The kinetic analysis for EGF was performed at 25° C. The EGF was diluted in HBS-EP buffer and centrifuged at 14,000 rpm for five minutes at 4° C. Individual test samples of EGF at various concentrations (62.5, 125, 250, 500 and 1000 nM) were injected for three minutes at a flow rate of 10 microliters/minute. The surface was regenerated by injection of 10 microliters of glycine-HCl in water (20 mM, pH 2.5).
The data analysis was carried out using the BIA Evaluation Software Kit obtained from GE Healthcare Bio-Sciences Corporation. The assay data fitted 1-to-1 Langmuir using global curve fitting analysis.

[3] = target: T2, EGF; experiment: Dot blotting analysis of biotinylated peptide with membrane-spotted EGF; assay type: binding; parameters: Recombinant Human Epidermal Growth Factor (EGF); purchased Abcam plc, Cambridge, Mass; details: EGF 10 nM spotted; biotinylated peptide 10 ng/mL; Streptavidin-HRP, TMB
Experimental: EGF (1 microliter of a 10 nM solution in PBS was spotted a nitrocellulose membrane (obtained from Thermo Fisher Scientific) and the membrane was dried in air for about 30 minutes. The membrane was then incubated in 15 mL of blocking buffer (3 wt. % BSA in PBS) for one hour at room temperature. The membrane was washed three times (15 minutes for each wash) with 15 mL portions of fresh PBST. The washed membrane was incubated with Biotinylated SEQ ID NO: 1 [10 mL of a 10 ng/mL solution in blocking buffer (3 wt. % BSA in PBS)] with gentle agitation for one hour. The membrane was again washed three times (15 minutes for each wash) with 15 mL portions of fresh PBST. The washed membrane was incubated with Streptavidin-HRP [1:5000 dilution in 10 mL of the blocking buffer (3 wt. % BSA in PBS)] for 30 minutes with gentle agitation. Following the incubation, the membrane was washed three times (15 minutes for each wash) with 15 mL portions of fresh PBST. The washed membrane was incubated with 10 mL of the development solution for horseradish peroxidase (TMB-Blotting Substrate Solution, Pierce-Fisher Scientific) with gentle agitation. The color development was stopped by adding water.

T2 sequence (P01133 971-1023 limits assumed): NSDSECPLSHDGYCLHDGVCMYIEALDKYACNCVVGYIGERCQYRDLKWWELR
T1 sequence (P01375 77-233 limits assumed): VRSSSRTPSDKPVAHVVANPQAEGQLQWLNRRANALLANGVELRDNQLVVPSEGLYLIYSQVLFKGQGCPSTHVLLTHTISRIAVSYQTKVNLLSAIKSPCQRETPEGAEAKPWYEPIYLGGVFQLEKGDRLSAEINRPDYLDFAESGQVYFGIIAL

Substance	pKd [1]	pKd [2]	dot blot colour development at EGF application site (affinity for EGF) [3]
Ac-WFEWPYWEMNVPDVWN-NH2 [SEQ ID NO: 1, WFEWPYWEMNVPDVWN]	4.12	7.10	–
Biotinylated SEQ ID NO: 1: Biotinylated version of peptide SEQ ID NO: 1 (WFEWPYWEMNVPDVWN; also: biotinylated, site not given here)	–	–	A dark spot developed
